Measured values taken from patent US8309586B2, “Glucokinase activators and pharmaceutical compositions containing the same as an active ingredient” (LG Life Sciences Ltd., priority 2007, dated 2012).

What was measured:
[1] = test system: Glucokinase known as hexokinase IV (human GK isoform 1, pancreas form and human GK isoform 2, liver form); assay: Glucokinase enzymatic activity assay (G6PDH-coupled, NADH absorbance at 340 nm); format: biochemical; details: 5 mM glucose, 1 mM ATP, 37 nM GK, 10 min at room temperature
Outline: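 His-tagged human GK isoform 1 (pancreas) or 2 (liver), E. coli-expressed and Ni-purified, 37 nM, with 5 mM glucose, 1 mM ATP, 1 mM NAD and G6PDH in 25 mM Hepes/KCl, 2 mM MgCl2, 1 mM DTT. Ran 10 min at room temperature, read as NADH at 340 nm. AC1.5 is the compound concentration giving 1.5-fold activity.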

male C57BL/6 mice = assay: Blood glucose lowering abilities after single oral administration in male C57BL/6 mouse; format: in vivo; details: 30 mg/kg single oral dose, fed ad libitum, medium: distilled water
Protocol: The glucokinase activators according to the present invention were orally administered in a single dose in the amount of 30 mg/kg body weight to male C57BL/6 mice for 24 h. The media were selected depending on their solubilities from distilled water, pH 1.2 HCl buffer solution, 0.5% methyl cellulose distilled water solution, 10% Gelucire/pH 1.2 HCl buffer solution (1/1). The glucokinase activators were dissolved in the selected media to the medium volume of 0.1 ml/10 g body weight on the basis of the body weight measured on the day of experiment.
Blood glucose was measured by cutting the tail vein before 1 h (time=−1) from the measurement of blood glucose, collecting blood from the tail vein at immediately before the administration of the glucokinase activator (time=0), and at 1, 2, 4, 8, 12, 24 h after administration, loading on the automatic glucometer (Accu-Chek® Active, Roche, USA), dropping 5 μl of the blood to a yellow pad of the Accu-Chek® Active glucose strip, and recording the measured value.
Mice involved in the experiment were divided into groups (n=10, in the case of media group n=4) on one day before the experiment so that each group has uniform average and standard deviation for blood glucose after 4 hour fasting. Mice were fed ad libitum.
The blood glucose lowering abilities in % of the representative compounds with respect to the 100% of media control were shown in the following Table 2.

Row | Structure (SMILES) | AC1.5 (the compound concentration at which the enzymatic activity is increased by 1.5 times) [1] [nM] | Hypoglycemic ability (% medium): blood glucose AUC for 24 h with respect to 100% of media control (male C57BL/6 mice) [%]
1 | O=C(O)C[C@@H]1CSC(c2cc3cc(Cl)cc(NC4CCCC4)c3[nH]2)=N1 [Example 27, [(R)-2-(5-chloro-7-cyclopentylamino-1H-indol-2-yl)-4,5-dihydro-thiazol-4-yl]acetic acid] | 4 | 75
2 | CCOc1cc(NC2CCCC2)c2[nH]c(C3=N[C@H](CC(=O)O)CS3)cc2c1 [Example 52, [(R)-2-(7-cyclopentylamino-5-ethoxy-1H-indol-2-yl)-4,5-dihydro-thiazol-4-yl]acetic acid] | 20 | 62
3 | O=C(O)C[C@@H]1CSC(c2cc3cc(Oc4ccccc4)cc(NC4CCCC4)c3[nH]2)=N1 [Example 54, [(R)-2-(7-cyclopentylamino-5-phenoxy-1H-indol-2-yl)-4,5-dihydro-thiazol-4-yl]-acetic acid] | 18 | 52

Second part, led by results:

Row | AC1.5 (the compound concentration at which the enzymatic activity is increased by 1.5 times) [1] [nM] | Structure (SMILES) | Hypoglycemic ability (% medium): blood glucose AUC for 24 h with respect to 100% of media control (male C57BL/6 mice) [%]
4 | 16 | Cc1cc(NC2CCCC2)c2[nH]c(C3=N[C@H](CCC(=O)O)CS3)cc2c1 [Example 158, 3-[(R)-2-(7-cyclopentylamino-5-methyl-1H-indol-2-yl)-4,5-dihydro-thiazol-4-yl]-propionic acid] | 66
5 | 5 | O=C(CO)N1CCN(CC[C@@H]2CSC(c3cc4cc(Cl)cc(NC5CCCC5)c4[nH]3)=N2)CC1 [Example 99, 1-(4-{2-[(R)-2-(5-chloro-7-cyclopentylamino-1H-indol-2-yl)-4,5-dihydro-thiazol-4-yl]-ethyl}-piperazin-1-yl)-2-hydroxy-ethanone] | 72
6 | 11 | Cc1cc(NC2CCCC2)c2[nH]c(C3=N[C@H](CC(=O)O)CS3)cc2c1 [Example 61, [(R)-2-(7-cyclopentylamino-5-methyl-1H-indol-2-yl)-4,5-dihydro-thiazol-4-yl]-acetic acid] | 54
7 | 17 | O=C(O)CC[C@@H]1CSC(c2cc3cc(Oc4ccccc4)cc(NC4CCCC4)c3[nH]2)=N1 [Example 159, 3-[(R)-2-(7-cyclopentylamino-5-phenoxy-1H-indol-2-yl)-4,5-dihydro-thiazol-4-yl]-propionic acid] | 63
